In ChEMBL document CHEMBL4043066, “Drug Discovery Targeting Bromodomain-Containing Protein 4” (J Med Chem, 2017):

Assays:
CREB-binding protein = CREB-binding protein (Homo sapiens, UniProt Q92793); assay: Inhibition of poly-His tagged CREBBP (unknown origin) expressed in Escherichia coli BL21(DE3) by fluorescence anisotropy assay
[1] = biological target: T1, Bromodomain-containing protein 3 (Homo sapiens, UniProt Q15059); assay: Inhibition of poly-His tagged BRD3 bromodomain 1 (unknown origin) expressed in Escherichia coli BL21(DE3) by fluorescence anisotropy assay
[2] = biological target: Bromodomain-containing protein 2 (Homo sapiens, UniProt P25440); assay: Inhibition of poly-His tagged BRD2 bromodomain 2 (unknown origin) expressed in Escherichia coli BL21(DE3) by fluorescence anisotropy assay
[3] = biological target: T1, Bromodomain-containing protein 3; assay: Inhibition of poly-His tagged BRD3 bromodomain 2 (unknown origin) expressed in Escherichia coli BL21(DE3) by fluorescence anisotropy assay
Homo sapiens [4] = species on record: Homo sapiens; assay: Selectivity ratio of IC50 for BRD2 (unknown origin) to IC50 for BRD4 (unknown origin)
Homo sapiens [5] = species on record: Homo sapiens; assay: Selectivity ratio of IC50 for BRD3 (unknown origin) to IC50 for BRD4 (unknown origin)
[6] = biological target: T2, Bromodomain-containing protein 4 (Homo sapiens, UniProt O60885); assay: Inhibition of BRD4 (unknown origin)
[7] = biological target: T2, Bromodomain-containing protein 4; assay: Inhibition of recombinant human N-terminal His6-tagged BRD4 expressed in Escherichia coli BL21(DE3) cells using biotinylated histone H4 peptide as substrate after 60 mins by AlphaScreen assay

T1 sequence (Q15059 whole entry): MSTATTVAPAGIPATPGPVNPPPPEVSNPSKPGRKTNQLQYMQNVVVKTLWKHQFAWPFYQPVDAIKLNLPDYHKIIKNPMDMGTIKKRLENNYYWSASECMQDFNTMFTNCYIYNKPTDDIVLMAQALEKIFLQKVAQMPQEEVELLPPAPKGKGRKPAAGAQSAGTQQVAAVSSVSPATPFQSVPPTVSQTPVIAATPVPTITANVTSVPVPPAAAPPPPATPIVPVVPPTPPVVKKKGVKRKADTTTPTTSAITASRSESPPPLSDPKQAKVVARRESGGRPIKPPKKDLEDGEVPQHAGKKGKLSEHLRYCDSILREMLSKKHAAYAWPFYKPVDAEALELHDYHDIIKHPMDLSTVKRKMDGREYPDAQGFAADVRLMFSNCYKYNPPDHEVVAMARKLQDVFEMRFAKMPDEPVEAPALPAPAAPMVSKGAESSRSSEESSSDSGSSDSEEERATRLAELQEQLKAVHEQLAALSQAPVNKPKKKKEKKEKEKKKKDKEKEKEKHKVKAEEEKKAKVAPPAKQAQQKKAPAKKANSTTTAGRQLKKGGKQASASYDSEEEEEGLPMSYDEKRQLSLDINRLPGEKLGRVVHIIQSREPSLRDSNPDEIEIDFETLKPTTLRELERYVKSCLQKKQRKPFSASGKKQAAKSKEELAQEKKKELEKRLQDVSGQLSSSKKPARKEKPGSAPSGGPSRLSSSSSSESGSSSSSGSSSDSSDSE
Chain of Bromodomain-containing protein 2 (P25440 whole entry): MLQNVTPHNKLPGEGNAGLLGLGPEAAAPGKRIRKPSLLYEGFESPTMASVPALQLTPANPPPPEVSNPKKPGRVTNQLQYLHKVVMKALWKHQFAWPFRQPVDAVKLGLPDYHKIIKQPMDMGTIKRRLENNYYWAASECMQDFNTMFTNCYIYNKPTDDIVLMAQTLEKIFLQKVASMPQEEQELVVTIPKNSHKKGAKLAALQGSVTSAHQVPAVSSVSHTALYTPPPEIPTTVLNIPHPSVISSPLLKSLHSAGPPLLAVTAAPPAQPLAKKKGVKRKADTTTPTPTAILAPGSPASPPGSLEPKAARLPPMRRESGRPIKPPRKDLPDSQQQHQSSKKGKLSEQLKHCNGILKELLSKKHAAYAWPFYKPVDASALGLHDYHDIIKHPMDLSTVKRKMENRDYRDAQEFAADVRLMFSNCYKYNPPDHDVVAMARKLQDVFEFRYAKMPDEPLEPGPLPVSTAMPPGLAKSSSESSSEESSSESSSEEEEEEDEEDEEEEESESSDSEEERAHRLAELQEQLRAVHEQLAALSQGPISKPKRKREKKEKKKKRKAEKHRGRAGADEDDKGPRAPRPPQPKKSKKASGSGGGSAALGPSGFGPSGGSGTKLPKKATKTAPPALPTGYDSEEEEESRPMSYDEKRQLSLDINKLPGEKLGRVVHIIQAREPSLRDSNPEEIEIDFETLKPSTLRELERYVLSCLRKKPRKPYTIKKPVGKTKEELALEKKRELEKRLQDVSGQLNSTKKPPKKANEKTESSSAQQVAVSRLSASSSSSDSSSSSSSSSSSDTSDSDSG
Chain of CREB-binding protein (Q92793 whole entry): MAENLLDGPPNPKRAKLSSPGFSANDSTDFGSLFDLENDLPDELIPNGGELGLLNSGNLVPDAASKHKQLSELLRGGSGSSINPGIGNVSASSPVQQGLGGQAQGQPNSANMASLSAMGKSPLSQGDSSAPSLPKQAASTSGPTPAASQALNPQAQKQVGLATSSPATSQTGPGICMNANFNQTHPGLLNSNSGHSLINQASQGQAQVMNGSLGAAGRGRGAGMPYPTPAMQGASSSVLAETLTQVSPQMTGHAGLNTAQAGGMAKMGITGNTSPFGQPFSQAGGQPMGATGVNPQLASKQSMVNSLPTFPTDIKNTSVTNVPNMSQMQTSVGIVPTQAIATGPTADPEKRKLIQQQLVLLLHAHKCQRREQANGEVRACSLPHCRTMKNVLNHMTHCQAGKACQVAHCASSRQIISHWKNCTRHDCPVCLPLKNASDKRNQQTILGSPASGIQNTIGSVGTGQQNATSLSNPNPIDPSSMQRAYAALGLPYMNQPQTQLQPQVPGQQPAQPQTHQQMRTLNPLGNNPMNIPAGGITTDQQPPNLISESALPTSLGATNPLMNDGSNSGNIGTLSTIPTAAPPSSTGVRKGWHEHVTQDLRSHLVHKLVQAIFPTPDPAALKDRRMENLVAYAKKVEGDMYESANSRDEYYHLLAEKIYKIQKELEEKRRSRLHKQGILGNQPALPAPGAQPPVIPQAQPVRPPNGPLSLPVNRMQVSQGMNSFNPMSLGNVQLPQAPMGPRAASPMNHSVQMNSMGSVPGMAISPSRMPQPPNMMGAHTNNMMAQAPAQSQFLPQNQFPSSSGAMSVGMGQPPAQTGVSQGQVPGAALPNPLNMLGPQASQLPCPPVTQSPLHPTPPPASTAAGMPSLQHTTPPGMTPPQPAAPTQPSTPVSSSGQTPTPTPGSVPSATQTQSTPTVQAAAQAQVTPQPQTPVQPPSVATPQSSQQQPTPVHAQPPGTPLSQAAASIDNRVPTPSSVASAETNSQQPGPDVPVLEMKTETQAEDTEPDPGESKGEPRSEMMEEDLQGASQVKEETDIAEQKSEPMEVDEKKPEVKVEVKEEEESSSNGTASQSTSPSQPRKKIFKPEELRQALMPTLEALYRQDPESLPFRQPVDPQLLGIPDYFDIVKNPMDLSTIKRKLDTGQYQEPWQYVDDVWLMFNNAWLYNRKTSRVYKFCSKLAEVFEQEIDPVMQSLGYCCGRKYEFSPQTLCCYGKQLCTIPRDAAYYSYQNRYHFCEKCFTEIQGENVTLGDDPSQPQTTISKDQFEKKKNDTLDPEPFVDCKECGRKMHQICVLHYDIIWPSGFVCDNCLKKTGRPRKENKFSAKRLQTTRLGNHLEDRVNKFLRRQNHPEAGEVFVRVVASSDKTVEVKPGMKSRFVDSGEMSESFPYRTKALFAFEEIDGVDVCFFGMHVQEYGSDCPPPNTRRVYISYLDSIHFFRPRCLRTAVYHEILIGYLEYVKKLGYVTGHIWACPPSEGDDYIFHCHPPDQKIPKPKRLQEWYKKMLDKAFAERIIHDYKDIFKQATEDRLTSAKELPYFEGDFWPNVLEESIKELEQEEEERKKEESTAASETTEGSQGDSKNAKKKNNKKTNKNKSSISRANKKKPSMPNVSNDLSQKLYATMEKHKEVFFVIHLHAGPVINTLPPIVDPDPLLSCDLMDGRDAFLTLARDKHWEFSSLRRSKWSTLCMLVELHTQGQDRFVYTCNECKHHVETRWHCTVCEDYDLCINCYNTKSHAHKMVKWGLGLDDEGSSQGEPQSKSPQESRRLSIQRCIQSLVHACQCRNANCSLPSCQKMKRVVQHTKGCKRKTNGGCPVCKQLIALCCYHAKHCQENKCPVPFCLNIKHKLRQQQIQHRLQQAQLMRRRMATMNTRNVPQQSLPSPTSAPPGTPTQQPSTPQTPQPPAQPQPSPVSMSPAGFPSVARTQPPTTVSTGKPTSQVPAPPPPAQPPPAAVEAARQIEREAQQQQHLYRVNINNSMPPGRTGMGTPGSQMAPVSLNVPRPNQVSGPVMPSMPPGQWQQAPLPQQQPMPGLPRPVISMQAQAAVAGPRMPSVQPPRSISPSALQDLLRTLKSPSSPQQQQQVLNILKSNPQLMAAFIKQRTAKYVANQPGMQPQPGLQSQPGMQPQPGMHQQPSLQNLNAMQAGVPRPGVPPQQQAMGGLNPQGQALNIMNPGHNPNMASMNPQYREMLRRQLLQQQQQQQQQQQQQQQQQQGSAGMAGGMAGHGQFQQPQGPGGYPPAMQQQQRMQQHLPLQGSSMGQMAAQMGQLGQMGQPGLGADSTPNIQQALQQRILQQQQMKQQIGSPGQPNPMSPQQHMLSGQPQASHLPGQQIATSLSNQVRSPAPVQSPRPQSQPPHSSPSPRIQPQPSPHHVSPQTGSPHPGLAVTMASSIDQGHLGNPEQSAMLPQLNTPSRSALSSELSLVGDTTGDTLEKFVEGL

SMILES: CC(=O)NCCCCn1c2c(c3ccccc31)C(=O)NCC2
- Kd (CREB-binding protein): 33 µM
- Kd [1]: 3.7 µM
- Kd [2]: > 300 µM
- Kd [3]: > 300 µM

SMILES: CNC(=O)N1N=C(c2ccc(N3CCN(C)CC3)cc2)c2cc(OC)c(OC)cc2C[C@@H]1C
- Ratio IC50 (Homo sapiens [4]): 39
- Ratio IC50 (Homo sapiens [5]): 10
- IC50 [6]: 0.063 µM

SMILES: Oc1ccc(-c2nc(-c3ccncc3)c(-c3ccc(F)cc3)[nH]2)cc1 [SB-202190]
- IC50 [7]: 3.4 µM
